Targets include CDKL3 (Homo sapiens, UniProt Q8IVW4); CHEK1 (Homo sapiens, UniProt O14757); CSNK1E (Homo sapiens, UniProt P49674); EGFR (Homo sapiens, UniProt P00533); EGFR(L861Q) (Homo sapiens, UniProt P00533, L861Q); ERBB2 (Homo sapiens, UniProt P04626); FLT3(N841I) (Homo sapiens, UniProt P36888, N841I); INSR (Homo sapiens, UniProt P06213); LIMK2 (Homo sapiens, UniProt P53671); LRRK2(G2019S) (Homo sapiens, UniProt Q5S007, G2019S); PIK3CA(E545K) (Homo sapiens, UniProt P42336, E545K); PRKCI (Homo sapiens, UniProt P41743); PRKCQ (Homo sapiens, UniProt Q04759); RIOK2 (Homo sapiens, UniProt Q9BVS4); TSSK3 (Homo sapiens, UniProt Q96PN8).

Holding throughout (assay): biochemical
Common to all, as to design: DiscoverX kinase panel, active-site competition binding (KINOMEscan type), percent of control at one concentration
Common to all, as to conditions: competition binding, percent of control

A further test addresses T1, ASK1 (Homo sapiens, UniProt Q99683).
T1 construct: gene MAP3K5

A further test has as its target T2, CDC2L1 (Homo sapiens, UniProt P21127).
T2 construct: gene CDK11B

In another test the target is T3, CDK4-cyclinD3 (Homo sapiens, UniProt P11802).
T3 construct: cyclinD3

A further test addresses T4, MST4 (Homo sapiens, UniProt Q9P289).
T4 construct: gene STK26

The target of the next test is T5, PFCDPK1(P.falciparum) (Plasmodium falciparum, UniProt P62344).
T5 construct: gene CDPK1

For another test, the target named is T6, p38-delta (Homo sapiens, UniProt O15264).
T6 construct: gene MAPK13
T6 sequence (O15264 whole entry): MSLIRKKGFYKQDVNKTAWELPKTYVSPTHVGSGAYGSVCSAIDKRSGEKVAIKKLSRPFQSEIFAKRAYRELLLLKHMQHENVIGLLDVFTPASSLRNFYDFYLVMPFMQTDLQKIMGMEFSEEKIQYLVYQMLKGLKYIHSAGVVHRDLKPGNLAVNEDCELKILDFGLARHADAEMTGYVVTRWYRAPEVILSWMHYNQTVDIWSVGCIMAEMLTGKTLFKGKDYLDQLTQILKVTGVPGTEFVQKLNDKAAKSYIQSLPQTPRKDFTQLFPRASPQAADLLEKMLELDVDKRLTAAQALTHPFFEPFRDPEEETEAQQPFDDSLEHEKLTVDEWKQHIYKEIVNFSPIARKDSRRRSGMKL

T1 sequence (Q99683 whole entry): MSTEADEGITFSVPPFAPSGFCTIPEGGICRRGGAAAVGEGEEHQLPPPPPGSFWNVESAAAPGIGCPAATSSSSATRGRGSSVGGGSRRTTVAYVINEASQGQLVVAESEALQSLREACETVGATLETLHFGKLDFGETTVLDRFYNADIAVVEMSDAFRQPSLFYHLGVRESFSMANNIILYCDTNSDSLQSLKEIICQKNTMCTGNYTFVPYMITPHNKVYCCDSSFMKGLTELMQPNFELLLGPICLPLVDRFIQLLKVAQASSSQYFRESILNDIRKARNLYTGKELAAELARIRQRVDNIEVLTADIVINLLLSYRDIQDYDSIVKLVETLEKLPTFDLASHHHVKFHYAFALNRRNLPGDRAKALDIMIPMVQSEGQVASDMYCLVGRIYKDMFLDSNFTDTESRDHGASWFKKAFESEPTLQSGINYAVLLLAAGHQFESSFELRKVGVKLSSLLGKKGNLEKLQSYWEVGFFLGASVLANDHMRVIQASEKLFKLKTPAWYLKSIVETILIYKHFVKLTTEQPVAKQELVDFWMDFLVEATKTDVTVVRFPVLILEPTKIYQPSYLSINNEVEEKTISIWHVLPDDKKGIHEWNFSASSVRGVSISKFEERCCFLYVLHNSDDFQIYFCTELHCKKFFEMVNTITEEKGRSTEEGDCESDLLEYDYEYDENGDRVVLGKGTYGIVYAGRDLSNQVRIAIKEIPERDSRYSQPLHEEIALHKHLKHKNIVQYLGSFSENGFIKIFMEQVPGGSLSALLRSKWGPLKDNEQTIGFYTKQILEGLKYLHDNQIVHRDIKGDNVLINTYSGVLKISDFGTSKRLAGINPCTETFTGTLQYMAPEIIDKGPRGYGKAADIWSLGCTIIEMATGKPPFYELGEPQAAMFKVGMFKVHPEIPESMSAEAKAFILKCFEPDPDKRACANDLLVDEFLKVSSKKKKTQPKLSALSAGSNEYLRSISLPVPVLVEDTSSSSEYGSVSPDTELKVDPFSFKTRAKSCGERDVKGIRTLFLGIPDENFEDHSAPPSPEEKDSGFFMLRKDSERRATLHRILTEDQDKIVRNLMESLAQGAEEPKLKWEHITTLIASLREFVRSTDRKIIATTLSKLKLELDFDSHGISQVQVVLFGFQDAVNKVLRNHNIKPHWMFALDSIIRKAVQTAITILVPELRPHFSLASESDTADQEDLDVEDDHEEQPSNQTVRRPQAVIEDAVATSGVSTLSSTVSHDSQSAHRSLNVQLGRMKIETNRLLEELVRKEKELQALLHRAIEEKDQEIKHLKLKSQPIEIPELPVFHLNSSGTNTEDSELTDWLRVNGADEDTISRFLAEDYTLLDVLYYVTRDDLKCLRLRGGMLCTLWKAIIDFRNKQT
Chain of CHEK1 (O14757 whole entry): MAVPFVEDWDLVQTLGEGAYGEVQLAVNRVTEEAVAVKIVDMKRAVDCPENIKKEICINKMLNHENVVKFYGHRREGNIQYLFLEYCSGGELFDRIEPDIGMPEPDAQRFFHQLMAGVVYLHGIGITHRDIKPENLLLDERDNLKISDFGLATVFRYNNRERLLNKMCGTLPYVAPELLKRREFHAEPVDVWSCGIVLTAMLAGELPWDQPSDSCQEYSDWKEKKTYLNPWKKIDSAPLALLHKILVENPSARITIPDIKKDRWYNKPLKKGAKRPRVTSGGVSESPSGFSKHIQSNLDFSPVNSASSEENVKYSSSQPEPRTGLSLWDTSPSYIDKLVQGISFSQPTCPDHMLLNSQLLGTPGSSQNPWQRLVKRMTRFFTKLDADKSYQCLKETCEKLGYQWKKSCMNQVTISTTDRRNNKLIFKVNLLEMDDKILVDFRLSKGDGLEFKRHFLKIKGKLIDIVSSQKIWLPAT
T4 sequence (Q9P289 whole entry): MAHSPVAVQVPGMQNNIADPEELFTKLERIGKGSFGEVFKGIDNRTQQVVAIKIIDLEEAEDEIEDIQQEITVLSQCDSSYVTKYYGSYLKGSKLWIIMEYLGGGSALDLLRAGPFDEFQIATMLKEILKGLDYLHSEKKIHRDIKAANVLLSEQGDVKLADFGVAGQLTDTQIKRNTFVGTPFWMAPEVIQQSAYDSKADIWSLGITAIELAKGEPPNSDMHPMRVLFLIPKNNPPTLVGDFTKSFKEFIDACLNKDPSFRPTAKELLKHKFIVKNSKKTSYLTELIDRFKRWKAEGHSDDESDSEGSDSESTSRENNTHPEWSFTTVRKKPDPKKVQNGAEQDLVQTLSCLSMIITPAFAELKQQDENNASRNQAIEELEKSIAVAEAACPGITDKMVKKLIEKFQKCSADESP
Chain of EGFR(L861Q) (P00533 whole entry L861Q): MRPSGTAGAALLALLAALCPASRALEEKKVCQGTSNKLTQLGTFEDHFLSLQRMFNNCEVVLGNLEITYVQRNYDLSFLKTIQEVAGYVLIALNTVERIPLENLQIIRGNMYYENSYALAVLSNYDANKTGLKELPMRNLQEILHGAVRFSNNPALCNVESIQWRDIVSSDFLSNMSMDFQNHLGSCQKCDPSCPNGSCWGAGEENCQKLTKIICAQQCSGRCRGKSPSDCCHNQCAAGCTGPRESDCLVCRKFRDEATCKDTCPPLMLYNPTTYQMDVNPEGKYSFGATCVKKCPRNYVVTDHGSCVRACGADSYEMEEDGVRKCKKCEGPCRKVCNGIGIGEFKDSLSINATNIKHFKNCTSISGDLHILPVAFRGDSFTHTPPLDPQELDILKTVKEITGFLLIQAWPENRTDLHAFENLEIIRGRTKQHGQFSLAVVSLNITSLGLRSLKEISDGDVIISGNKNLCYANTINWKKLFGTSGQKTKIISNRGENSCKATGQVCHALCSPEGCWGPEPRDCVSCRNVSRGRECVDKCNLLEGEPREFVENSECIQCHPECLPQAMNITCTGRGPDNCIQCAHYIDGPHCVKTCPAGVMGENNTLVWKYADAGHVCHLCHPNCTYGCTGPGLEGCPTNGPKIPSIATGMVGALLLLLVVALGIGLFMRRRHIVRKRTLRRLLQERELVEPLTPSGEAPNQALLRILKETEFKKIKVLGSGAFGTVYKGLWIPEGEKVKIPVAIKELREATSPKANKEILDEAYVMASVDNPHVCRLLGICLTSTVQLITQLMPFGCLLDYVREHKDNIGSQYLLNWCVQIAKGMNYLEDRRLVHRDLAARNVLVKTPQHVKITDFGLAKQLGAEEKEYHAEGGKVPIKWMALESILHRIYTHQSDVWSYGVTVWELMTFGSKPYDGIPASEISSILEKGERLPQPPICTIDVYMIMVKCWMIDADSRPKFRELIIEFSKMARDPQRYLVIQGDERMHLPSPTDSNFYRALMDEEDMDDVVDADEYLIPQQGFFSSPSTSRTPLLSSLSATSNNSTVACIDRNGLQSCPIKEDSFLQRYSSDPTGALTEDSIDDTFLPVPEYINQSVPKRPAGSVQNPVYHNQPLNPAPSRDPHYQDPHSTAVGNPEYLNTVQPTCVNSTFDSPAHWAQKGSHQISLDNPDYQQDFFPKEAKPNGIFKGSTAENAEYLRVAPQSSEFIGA
Chain of PRKCI (P41743 whole entry): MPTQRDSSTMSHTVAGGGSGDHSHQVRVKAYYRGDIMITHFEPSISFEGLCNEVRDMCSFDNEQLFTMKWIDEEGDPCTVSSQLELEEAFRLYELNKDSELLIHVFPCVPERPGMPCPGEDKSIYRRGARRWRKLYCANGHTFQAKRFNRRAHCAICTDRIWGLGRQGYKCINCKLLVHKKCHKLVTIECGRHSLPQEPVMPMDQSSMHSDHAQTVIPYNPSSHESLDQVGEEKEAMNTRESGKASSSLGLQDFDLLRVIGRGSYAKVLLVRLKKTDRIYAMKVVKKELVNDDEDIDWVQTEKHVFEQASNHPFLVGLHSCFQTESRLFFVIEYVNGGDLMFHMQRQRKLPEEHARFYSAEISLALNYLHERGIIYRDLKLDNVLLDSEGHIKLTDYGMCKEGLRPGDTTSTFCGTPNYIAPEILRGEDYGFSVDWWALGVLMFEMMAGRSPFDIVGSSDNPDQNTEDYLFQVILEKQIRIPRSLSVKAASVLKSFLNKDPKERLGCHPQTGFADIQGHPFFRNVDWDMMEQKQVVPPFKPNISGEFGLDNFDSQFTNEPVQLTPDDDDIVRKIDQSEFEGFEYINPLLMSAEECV
Chain of CSNK1E (P49674 whole entry): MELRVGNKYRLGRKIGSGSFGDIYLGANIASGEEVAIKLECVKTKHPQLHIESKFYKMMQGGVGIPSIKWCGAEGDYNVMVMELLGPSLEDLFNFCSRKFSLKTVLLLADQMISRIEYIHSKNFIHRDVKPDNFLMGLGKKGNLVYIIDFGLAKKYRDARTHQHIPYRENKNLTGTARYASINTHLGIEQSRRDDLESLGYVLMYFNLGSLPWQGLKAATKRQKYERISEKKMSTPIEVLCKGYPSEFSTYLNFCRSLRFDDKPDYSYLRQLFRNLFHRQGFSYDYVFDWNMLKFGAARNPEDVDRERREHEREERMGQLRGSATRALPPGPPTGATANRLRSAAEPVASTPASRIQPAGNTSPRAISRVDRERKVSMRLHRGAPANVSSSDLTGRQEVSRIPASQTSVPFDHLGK

As to `COc1cc2c(cn1)N(C)C(=O)[C@@H](NC(=O)c1nc3n(n1)[C@H](c1ccccc1)CC3)CC2` [GNE684, (S)-N-((S)-7-methoxy-1-methyl-2-oxo-2,3,4,5-tetrahydro-1H-pyrido[3,4-b]azepin-3-yl)-5-phenyl-6,7-dihydro-5H-pyrrolo[1,2-b][1,2,4]triazole-2-carboxamide], the remaining binding at 10 µM was found to be 97% at ASK1; 100% at CDC2L1; 97% on CDK4-cyclinD3; 69% at CDKL3; 100% on CHEK1; 74% at CSNK1E. In addition, the remaining binding at 10 µM at EGFR came to 100%; at EGFR(L861Q), 96%; at ERBB2 it was 76%; on FLT3(N841I), 100%; at INSR, 90%; at LIMK2, 32%. For the same compound, the remaining binding at 10 µM is 97% at LRRK2(G2019S); 100% on MST4; 100% on PFCDPK1(P.falciparum); 55% at PIK3CA(E545K); 95% on PRKCI; 100% at PRKCQ. Further, the remaining binding at 10 µM on RIOK2 stood at 28%; on TSSK3, 96%; at p38-delta, 92%.

The values are drawn from paper PMC7206119, “RIP1 inhibition blocks inflammatory diseases but not tumor growth or metastases” (Cell Death and Differentiation, 2019).
